System: patients with a solid tumor
Assay: Suppression of nausea or vomiting associated with administration of Compound A by antiemetics
Format: in vivo, human
Details: for number of subjects that did not show improvement of vomiting after the antiemetic / number of subjects in which vomiting could be suppressed / number of subjects showing improvement after switch from non-5-HT3 antiemetic to the 5-HT3 receptor antagonist: of 20 subjects; for number of subjects that did not show improvement of vomiting after the antiemetic: domperidone, metoclopramide or prochlorperazine; for number of subjects in which vomiting could not be suppressed: Compound A 160 mg BID; for number of subjects in which vomiting could not be suppressed / number of subjects in which vomiting could be suppressed / number of subjects showing improvement after switch from non-5-HT3 antiemetic to the 5-HT3 receptor antagonist: ramosetron or granisetron; for number of subjects showing improvement of vomiting by the antiemetic: of 20 subjects complaining of vomiting during Cycle 1, prochlorperazine or metoclopramide
Source text: For subjects of administration that had the gastrointestinal symptoms, nausea or vomiting, the results of administration of various antiemetics were investigated to determine whether they could suppress the occurrence of nausea or vomiting. The antiemetics used were domperidone ([…], Nauzelin tablet), metoclopramide (peripheral D2 receptor antagonist, metoclopramide tablet), ramosetron hydrochloride (5-HT3 receptor antagonist, Nasea tablet), granisetron (5-HT3 receptor antagonist (Kytril tablet), and the like.
The antiemetics were timely administered to 20 subjects of administration that complained of vomiting during Cycle 1.
FIGS. 1 and 2 are graphs showing the relationship between Cmax(Cmax,ss) or AUC (AUC(0-tau),ss) and the vomiting flag for each test subject at the time of CID8. For example, the vomiting flag 3 means a case in which treatment with an antiemetic other than the 5-HT3 receptor antagonist was first attempted but vomiting could not be suppressed, and vomiting could be suppressed when the antiemetic was switched to the 5-HT3 receptor antagonist.
Five additional patients were investigated whether the occurrence of nausea or vomiting, which is an adverse event having a causal relationship with Compound A, could be suppressed. Ramosetron hydrochloride or granisetron hydrochloride (5-HT3 receptor antagonist) was administered to four patients of administration that complained of vomiting during Cycle 1. Of the four patients that complained of vomiting, three patients received granisetron hydrochloride to prevent the gastrointestinal symptoms (nausea, vomiting) associated with administration of Compound A.

Row | Compound | number of subjects that did not show improvement of vomiting after the antiemetic | number of subjects in which vomiting could not be suppressed | number of test subjects in which vomiting could be suppressed when given after symptoms of nausea or vomiting (additional patients, Compound A 120 mg BID) | vomiting after prophylactic administration (additional patients, Compound A 120 mg BID, three patients) | number of subjects in which vomiting could be suppressed | number of subjects showing improvement after switch from non-5-HT3 antiemetic to the 5-HT3 receptor antagonist | number of subjects in which vomiting could be prevented when given at onset of nausea (of the twelve subjects) | number of subjects showing improvement of vomiting by the antiemetic
1 | O=c1[nH]c2ccccc2n1CCCN1CCC(n2c(=O)[nH]c3cc(Cl)ccc32)CC1 [domperidone] | four | – | – | – | – | – | – | –
2 | CN1[C@@H]2CCC[C@H]1C[C@@H](NC(=O)c1nn(C)c3ccccc13)C2.Cl [granisetron, 1-methyl-N-(endo-9-methyl-9-azabicyclo[3.3.1]non-3-yl)-1H-indazole-3-carboxamide hydrochloride] | – | two | one | no vomiting occurred afterwards | twelve | four | two | –
3 | CCN(CC)CCNC(=O)c1cc(Cl)c(N)cc1OC [metoclopramide] | four | – | – | – | – | – | – | Two
4 | CN1CCN(CCCN2c3ccccc3Sc3ccc(Cl)cc32)CC1 [prochlorperazine] | four | – | – | – | – | – | – | Two
5 | Cl.Cn1cc(C(=O)[C@@H]2CCc3[nH]cnc3C2)c2ccccc21 [ramosetron, (−)-(R)-5-[(1-methyl-1H-indol-3-yl)carbonyl]-4,5,6,7-tetrahydro-1H-benzimidazole monohydrochloride] | – | two | – | – | twelve | four | – | –

Reference: US20250222003A1, “PHARMACEUTICAL COMPOSITION FOR TREATING SOLID TUMORS” (Eisai R&D Management Co., Ltd., priority 2021, published 2025)
